The target of this test is T1, Human pyruvate kinase R (PKR) (Homo sapiens, UniProt P30613).
T1 construct: Human pyruvate kinase R (PKR), residues 14-574; 6x-His (N, cleaved yes); 8x-Arg (N, cleaved yes); SUMO (N, cleaved yes); host or cells: E. coli
In words: Biochemical assay for activation of pyruvate kinase R (Kinase-Glo luminescence measurement of ATP generation). To be noted: for AC50: PKR biochemical assay, 0.1 nM PKR, 0.3 mM ADP, 2 mM FBP, 0.1 mM PEP; for Emax: maximal activation level relative to the activation level achieved by the literature compound AG-348 @ 10 μM. As to the method:
Human pyruvate kinase R (PKR), residues 14-574, and human pyruvate kinase M2, residues 1-531, were cloned into expression plasmids and obtained from ATUM Bio (Newark, Calif.). Proteins were translated as fusions with 6×-His, 8×-Arg, and SUMO at the N-terminus. A third construct of human PKR was truncated, residues 50-574, and similarly cloned for use in crystallography experiments. All proteins were cloned, expressed in E. coli, and purified using similar protocols. Cells were grown at 30° C. in Luria-Bertani broth supplemented with 0.4% glucose to OD600=0.8 and induced with 0.4 mM IPTG at 16° C. for 18 hours. Cells were harvested by centrifugation, resuspended in 50 mM potassium phosphate pH 8.0, 500 mM NaCl, 25 mM imidazole pH 8.0, and 3 mM (3-mercaptoethanol. Cells were lysed using a LM20 microfluidizer from Microfluidics (Westwood, Mass.). The crude lysate was immediately supplemented with 0.2 mM phenylmethylsulfonyl fluoride (PMSF) and centrifuged at 20,000 g for 20 minutes. The soluble fraction was subsequently incubated with 2 mL Ni-NTA (GE Healthcare) per 1,000 ODs for 1 hour at 4° C. Following incubation with the Ni-NTA resin, lysate was removed by pelleting resin at 2,500 g for 3 minutes and washed 3 times with 9 bed volumes of 50 mM potassium phosphate pH 8.0, 500 mM NaCl, 25 mM imidazole, and 3 mM 3-mercaptoethanol. Following the batch wash Ni-NTA resin was loaded onto a gravity column and His-tagged protein was eluted with 6 bed volumes of 10 mM Tris/HCl pH 8.0, 200 mM NaCl, 500 mM imidazole, and 3 mM (3-mercaptoethanol. Eluted protein was dialyzed overnight against 10 mM Tris/HCl pH 8.0, 200 mM NaCl, and 1 mM DTT and the 6×-His-8×-Arg-SUMO-tag was cleaved using a 20:1 molar ratio of protein:3C protease. The protein was purified by anion exchange chromatography on a HiTrapQ or MonoQ 10/100 GL column (GE Healthcare) via a linear NaCl gradient and twice by size exclusion chromatography using a Superdex S200 26/60 column (GE Healthcare) run in 10 mM Tris/HCl pH 8.0, 200 mM NaCl, 10 mM MgCl2, 1 mM DTT. Proteins were concentrated to −12 mg/mL for crystallization and flash frozen for storage.
Biochemical Assay for Activation of Pyruvate Kinase R
Activation of pyruvate kinase R (PKR) and pyruvate kinase M2 (PKM2) were measured using a luminescence based measurement of ATP generation and the Kinase-Glo luminescent kinase reagent kit.
A general note: In Kinase-Glo more light means more ATP remaining.

T1 sequence (P30613 14-574): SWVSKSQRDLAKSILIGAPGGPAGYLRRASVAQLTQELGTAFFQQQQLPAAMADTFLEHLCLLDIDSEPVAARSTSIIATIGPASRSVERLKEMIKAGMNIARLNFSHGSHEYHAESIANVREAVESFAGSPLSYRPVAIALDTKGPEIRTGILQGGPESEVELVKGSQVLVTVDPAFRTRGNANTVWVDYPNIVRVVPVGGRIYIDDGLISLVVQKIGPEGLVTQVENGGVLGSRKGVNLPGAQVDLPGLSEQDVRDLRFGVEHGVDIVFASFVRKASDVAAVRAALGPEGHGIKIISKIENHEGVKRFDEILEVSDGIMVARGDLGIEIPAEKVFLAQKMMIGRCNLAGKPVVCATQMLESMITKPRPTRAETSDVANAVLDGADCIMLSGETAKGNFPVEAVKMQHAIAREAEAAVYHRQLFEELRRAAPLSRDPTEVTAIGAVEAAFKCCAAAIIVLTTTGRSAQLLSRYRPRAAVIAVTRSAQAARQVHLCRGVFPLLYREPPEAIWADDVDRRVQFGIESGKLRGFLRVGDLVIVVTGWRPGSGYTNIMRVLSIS

As for `O=C(NCc1ncnn1-c1ccc(Cl)c(F)c1)NCc1ncnn1-c1ccc(Cl)c(F)c1` [Compound 66, 1,3-bis({[1-(4-chloro-3-fluorophenyl)-1H-1,2,4-triazol-5-yl]methyl})urea], the concentration at half-maximal activity (AC50) (usually the midpoint of the concentration-response curve, whichever way the signal moves) turned out to be 13 nM and the Emax – broadly, the size of the effect at its maximum, as opposed to the concentration needed – was determined as 41%.
The matching figures for `O=C1N(Cc2ncnn2-c2ccc(Cl)c(F)c2)CCCN1Cc1ncnn1-c1ccc(Cl)c(F)c1` [Compound 6, 1,3-bis({[1-(4-chloro-3-fluorophenyl)-1H-1,2,4-triazol-5-yl]methyl})-1,3-diazinan-2-one]: 5.4 nM and 33%.
`O=C(NCc1ncnn1-c1ccc(Cl)nc1)NCc1ncnn1-c1ccc(Cl)nc1` [Compound 116, 1,3-bis({[1-(6-chloropyridin-3-yl)-1H-1,2,4-triazol-5-yl]methyl})urea] yielded an AC50 of 89 nM and a maximal response (Emax) of 39%.
Compound `CN(Cc1ncnn1-c1ccc(Cl)c(F)c1)C(=O)NCc1ncnn1-c1ccc(Cl)c(F)c1` [Compound 27, 1,3-bis({[1-(4-chloro-3-fluorophenyl)-1H-1,2,4-triazol-5-yl]methyl})-1-methylurea] had an AC50 of 5.4 nM and an Emax of 33%.
Regarding `O=C(NCc1ncnn1-c1ccc(Cl)c(F)c1)NCc1ncnn1-c1ccc2cccnc2c1` [Compound 75, 1-{[1-(4-chloro-3-fluorophenyl)-1H-1,2,4-triazol-5-yl]methyl}-3-{[1-(quinolin-7-yl)-1H-1,2,4-triazol-5-yl]methyl}urea], the AC50 was 33 nM and the Emax was 47%.
The matching figures for `Cc1nc(CNC(=O)NCc2nn(C)c(=O)n2-c2ccc(Cl)c(F)c2)n(-c2ccc(Cl)c(F)c2)n1` [Compound 90, 3-{[4-(4-chloro-3-fluorophenyl)-1-methyl-5-oxo-4,5-dihydro-1H-1,2,4-triazol-3-yl]methyl}-1-{[1-(4-chloro-3-fluorophenyl)-3-methyl-1H-1,2,4-triazol-5-yl]methyl}urea]: 40 nM and 97%.
In the same order, the values of `Cc1nc(CNC(=O)NCc2ncnn2-c2cnc3cccc(F)c3c2)n(-c2ccc(Cl)c(F)c2)n1` [Compound 140, 1-{[1-(4-chloro-3-fluorophenyl)-3-methyl-1H-1,2,4-triazol-5-yl]methyl}-3-{[1-(5-fluoroquinolin-3-yl)-1H-1,2,4-triazol-5-yl]methyl}urea] are 25 nM and 72%.
In the same order, the values of `Cc1nc(CNC(=O)NCC2=NC3(CC3)C(=O)N2Cc2ccc(F)cc2)n(-c2ccc(Cl)c(F)c2)n1` [Compound 106, 1-{[1-(4-chloro-3-fluorophenyl)-3-methyl-1H-1,2,4-triazol-5-yl]methyl}-3-({6-[(4-fluorophenyl)methyl]-7-oxo-4,6-diazaspiro[2.4]hept-4-en-5-yl}methyl)urea] are 71 nM and 125%.
Compound `CCN(Cc1ncnn1-c1ccc(Cl)c(F)c1)C(=O)NCc1nc(C)nn1-c1cnc2ccccc2c1` [Compound 143, 1-{[1-(4-chloro-3-fluorophenyl)-1H-1,2,4-triazol-5-yl]methyl}-1-ethyl-3-{[3-methyl-1-(quinolin-3-yl)-1H-1,2,4-triazol-5-yl]methyl}urea] displayed an AC50 of 140 nM and an Emax of 112%.
In the same order, the values of `CCN(Cc1ncnn1-c1ccc(Cl)c(F)c1)C(=O)NCc1nnnn1-c1ccc(Cl)c(F)c1` [Compound 36, 3-{[1-(4-chloro-3-fluorophenyl)-1H-1,2,3,4-tetrazol-5-yl]methyl}-1-{[1-(4-chloro-3-fluorophenyl)-1H-1,2,4-triazol-5-yl]methyl}-1-ethylurea] are 130 nM and 95%.
In the same order, the values of `Cc1nc(CNC(=O)NCc2ncnn2Cc2ccccc2)n(-c2ccc(Cl)c(F)c2)n1` [Compound 18, 1-[(1-benzyl-1H-1,2,4-triazol-5-yl)methyl]-3-{[1-(4-chloro-3-fluorophenyl)-3-methyl-1H-1,2,4-triazol-5-yl]methyl}urea] are 37 nM and 85%.
In turn, `Cc1nc(CNC(=O)NCc2nc(C)nn2-c2ccc(Cl)cc2)n(-c2ccc(Cl)cc2)n1` [Compound 73, 1,3-bis({[1-(4-chlorophenyl)-3-methyl-1H-1,2,4-triazol-5-yl]methyl})urea] returned an AC50 of 190 nM and an Emax of 107%.
`Cc1ccc(-n2nnnc2CNC(=O)NCc2nnnn2C2CCCCC2)cc1C` [Compound 72, 1-[(1-cyclohexyl-1H-1,2,3,4-tetrazol-5-yl)methyl]-3-{[1-(3,4-dimethylphenyl)-1H-1,2,3,4-tetrazol-5-yl]methyl}urea] showed an AC50 of 1800 nM and an Emax of 68%.
In the case of `CCN(Cc1ncnn1CC1CCOCC1)C(=O)NCc1ncnn1-c1ccc(Cl)c(F)c1` [Compound 9, 3-{[1-(4-chloro-3-fluorophenyl)-1H-1,2,4-triazol-5-yl]methyl}-1-ethyl-1-({1-[(oxan-4-yl)methyl]-1H-1,2,4-triazol-5-yl}methyl)urea], the AC50 worked out at 120 nM and the Emax came to 64%.
Consider `CN(Cc1ncnn1-c1ccc(Cl)c(F)c1)C(=O)NCc1nnnn1-c1ccc(Cl)c(F)c1` [Compound 33, 1-{[1-(4-chloro-3-fluorophenyl)-1H-1,2,3,4-tetrazol-5-yl]methyl}-3-{[1-(4-chloro-3-fluorophenyl)-1H-1,2,4-triazol-5-yl]methyl}-3-methylurea], for which the AC50 is 9 nM and the Emax turned out to be 67%.
The matching figures for `Cc1nc(CNC(=O)NCc2ncnn2-c2ccc3nccnc3c2)n(-c2ccc(Cl)c(F)c2)n1` [Compound 40, 3-{[1-(4-chloro-3-fluorophenyl)-3-methyl-1H-1,2,4-triazol-5-yl]methyl}-1-{[1-(quinoxalin-6-yl)-1H-1,2,4-triazol-5-yl]methyl}urea]: 150 nM and 73%.
The matching figures for `O=C(NCc1ncnn1-c1cc(F)cc(Cl)c1)NCc1ncnn1-c1cc(F)cc(Cl)c1` [Compound 68, 1,3-bis({[1-(3-chloro-5-fluorophenyl)-1H-1,2,4-triazol-5-yl]methyl})urea]: 3100 nM and 65%.
Consider `O=C(NCc1ncnn1-c1ccc(Cl)c(F)c1)NCc1ncnn1-c1nc2cc(Cl)ccc2s1` [Compound 35, 1-{[1-(5-chloro-1,3-benzothiazol-2-yl)-1H-1,2,4-triazol-5-yl]methyl}-3-{[1-(4-chloro-3-fluorophenyl)-1H-1,2,4-triazol-5-yl]methyl}urea], for which the AC50 was determined as 3200 nM and the Emax was 28%.
The matching figures for `Cc1nc(CNC(=O)NCc2ncnn2-c2cnc3cc(F)ccc3c2)n(-c2ccc(Cl)c(F)c2)n1` [Compound 135, 1-{[1-(4-chloro-3-fluorophenyl)-3-methyl-1H-1,2,4-triazol-5-yl]methyl}-3-{[1-(7-fluoroquinolin-3-yl)-1H-1,2,4-triazol-5-yl]methyl}urea]: 86 nM and 117%.
In the same order, the values of `CCc1ccc(-n2ncnc2CNC(=O)NCc2nc(C)nn2-c2ccc(Cl)c(F)c2)cn1` [Compound 141, 1-{[1-(4-chloro-3-fluorophenyl)-3-methyl-1H-1,2,4-triazol-5-yl]methyl}-3-{[1-(6-ethylpyridin-3-yl)-1H-1,2,4-triazol-5-yl]methyl}urea] are 140 nM and 71%.
